Assay results: ChEMBL document CHEMBL5608113, “Targeting of CAF-induced therapy resistance in CRC organoid-stroma co-cultures” (2024)

Assays:
Type in all cases: functional, Homo sapiens
Conditions in all cases: Homo sapiens, read-out: Cell Viability; for viability at 10 µM: Concentration 10 uM
Colon cancer organoid [1] = assay: Targeting of F14 CAF-induced therapy resistance in O23 CRC organoid-stroma co-culture. Cell viability is reported without Gefitinib.
Colon cancer organoid [2] = assay: Targeting of F14 CAF-induced therapy resistance in O14 CRC organoid-stroma co-culture. Cell viability is reported with Gefitinib.
Colon cancer organoid [3] = assay: Targeting of F14 CAF-induced therapy resistance in O23 CRC organoid-stroma co-culture. Cell viability is reported with Gefitinib.
Colon cancer organoid [4] = assay: Targeting of F14 CAF-induced therapy resistance in O14 CRC organoid-stroma co-culture. Cell viability is reported without Gefitinib.
Colon cancer organoid [5] = assay: Targeting of F14 CAF-induced therapy resistance in O23 CRC organoid-stroma co-culture. Cell viability is reported with SN-38.

SMILES | viability at 10 µM (Colon cancer organoid [1]) [%] | viability at 10 µM (Colon cancer organoid [2]) [%] | viability at 10 µM (Colon cancer organoid [3]) [%] | viability at 10 µM (Colon cancer organoid [4]) [%] | viability at 10 µM (Colon cancer organoid [5]) [%] | viability at 1 µM (Colon cancer organoid [1]; Concentration 1 uM) [%] | viability at 1 µM (Colon cancer organoid [2]; Concentration 1 uM) [%] | viability at 1 µM (Colon cancer organoid [3]; Concentration 1 uM) [%] | viability at 1 µM (Colon cancer organoid [4]; Concentration 1 uM) [%] | viability at 1 µM (Colon cancer organoid [5]; Concentration 1 uM) [%]
C[C@H]1CC(=O)Nc2cc(C(=O)NCCC3CC3)ccc2N1C(=O)N1CC2CC2C1 (stereo not given in full) | 196 | 59.8 | 142 | 108 | 160 |  |  |  |  | 
CN(C)C(=O)Cn1cc(-c2nc([C@@](C)(c3ccc(-c4cnc(N)nc4)cc3)C3CC3)no2)cn1 [BI 665915] |  |  |  |  |  | 181 | 56.8 | 79.9 | 102 | 85.2
Cc1noc([C@H]2C[C@@H](c3ccc(C(F)(F)F)cc3)CN(C(=O)N3CCS(=O)(=O)C3)C2)n1 [BAY-448] | 124 | 49 | 58 | 99.7 | 95.1 |  |  |  |  | 
COc1ccc2c(c1)O[C@@H](c1ccc(OC)c(OC)c1)C[C@H]2NC(=O)C1(c2ccc3c(c2)OC(F)(F)O3)CC1 [A-1596586] | 129 | 44.6 | 42.2 | 121 | 51.3 |  |  |  |  | 
Cn1cc(-c2ccc3occ(-c4cccc(-c5ccncc5)c4)c3n2)cn1 | 114 | 56.4 | 87.7 | 112 | 65.6 |  |  |  |  | 
CCS(=O)(=O)c1cc2cc(C[C@](O)(CC(C)(C)c3ccc(F)cc3C(N)=O)C(F)(F)F)[nH]c2cn1 [BI 653048] | 161 | 42.7 | 68.4 | 100 | 110 |  |  |  |  | 
CC1(C)C(N)=Nc2cc(OCCCN3Cc4ccc(OCCc5cn(CC(=O)N6CCC(CCN7CCCC7)CC6)nn5)cc4C3)c(OCC3CC3)cc21 | 11.8 | 68.9 | 9.03 | 111 | 7.1 |  |  |  |  | 
COc1cc(N(C)c2ccnc3ccc(C(F)(F)F)cc23)cc(OC)c1OC | 135 | 50.1 | 69.7 | 109 | 64.7 |  |  |  |  | 
CC(C)Oc1ccc(-c2c[nH]cc2CN(C)CCO)cc1 | 129 | 58.5 | 90.2 | 72 | 80.1 |  |  |  |  | 
Cn1cc(CCn2cnc(-c3cnn(C)c3)c2-c2ccc(C#N)cc2)cn1 | 141 | 71.4 | 63.6 | 105 | 92.5 |  |  |  |  | 
CC(=O)c1cc(-c2cc(C(=O)NC3CC3)ccc2C)c2ncccn12 | 108 | 65.1 | 71.5 | 83.8 | 91.2 |  |  |  |  | 
Cn1c(-c2csc(C3CCN(CC4=NC5N=CC=CC5N4)CC3)n2)nc2ccccc21 (stereo not given) [BAY-070] | 136 | 44.6 | 73.4 | 90.7 | 105 |  |  |  |  | 
CN(C)[C@H]1CN(C2CCc3cccc(F)c32)C[C@@H]1c1ccc(N2CCN(S(C)(=O)=O)CC2)cc1 (stereo not given in full) | 81.8 | 68.1 | 107 | 70.2 | 112 |  |  |  |  | 
CN(C(=O)c1ccccc1)c1cc(N(C)c2ccc3c(c2)CCc2ccc(C(=O)NCCN4CCOCC4)cc2C3=O)ccc1F [FM-743] | 141 | 36.5 | 83.7 | 142 | 59.3 |  |  |  |  | 
CC(C)(C#Cc1ccc(NC(=O)COc2ccccc2C(=O)c2ccccc2)c(Cl)c1)C(=O)O [BI 2439] | 160 | 36.7 | 98.3 | 159 | 82.7 |  |  |  |  | 
Cc1c(Nc2ccc(S(=O)(=O)N3CCN(C)CC3)cc2F)nc2ccc(-c3cnn(C4CC4)c3)cn2c1=O | 153 | 69.8 | 88.9 | 51.6 | 85.7 |  |  |  |  | 
COc1cc2c(NC3CCN(C(C)C)CC3)nc(N3CCC(F)(F)CC3)nc2cc1OCCCN1CCCC1 | 107 | 56.9 | 62.4 | 71.2 | 91.7 |  |  |  |  | 
CCC(=N\O)/C(C)=C/c1ccc(F)c(C)c1 [A-226] | 97.1 | 62.5 | 49.8 | 119 | 93.1 |  |  |  |  | 
Cc1ccc2[nH]c(CNCCCc3ccncc3)cc(=O)c2c1 [UCSF924NC] | 95.8 | 33.3 | 37.3 | 127 | 52.3 |  |  |  |  | 
